What is called IC50 is the concentration needed to halve the response being measured. Read a low IC50 as inhibition by little substance.

The target in this experiment is T1, human CCR-3 (Homo sapiens, UniProt P51677).
T1 construct: expressed in transfected cells; host or cells: rat basophil leukemia (RBL-2H3) cells, membranes
T1 sequence (P51677 1-355): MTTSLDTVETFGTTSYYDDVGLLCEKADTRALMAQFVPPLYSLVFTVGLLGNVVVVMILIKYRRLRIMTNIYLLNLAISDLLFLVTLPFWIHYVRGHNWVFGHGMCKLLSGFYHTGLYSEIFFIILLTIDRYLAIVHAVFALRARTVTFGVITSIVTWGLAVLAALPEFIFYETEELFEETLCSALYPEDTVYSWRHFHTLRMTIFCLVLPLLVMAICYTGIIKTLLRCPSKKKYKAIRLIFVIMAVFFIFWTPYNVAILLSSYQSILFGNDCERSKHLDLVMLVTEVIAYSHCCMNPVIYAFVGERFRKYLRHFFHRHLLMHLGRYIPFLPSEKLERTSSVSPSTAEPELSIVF
Description: CCR-3 Binding Assay ([125I]-human eotaxin SPA). As to conditions: inhibition of [125I]-human eotaxin binding to human CCR-3, membranes of RBL-2H3 cells expressing CCR3. As for the experimental part:
In this assay the effect of agents of the invention on the binding of human eotaxin to human CCR-3 is determined. Recombinant cells expressing human CCR-3 are captured by wheatgerm agglutinin (WGA) polyvinyltoluidene (PVT) SPA beads (available from Amersham), through a specific interaction between the WGA and carbohydrate residues of glycoproteins on the surface of the cells. [^125I]-human eotaxin (available from Amersham) binds specifically to CCR-3 receptors bringing the [^125I]-human eotaxin in close proximity to the SPA beads. Emitted â-particles from the [^125I]-human eotaxin excite, by its proximity, the fluorophore in the beads and produce light.
Preparation of Assay Buffer: 5.96 g HEPES and 7.0 g sodium chloride are dissolved in distilled water and 1M aqueous CaCl2 (1 mL) and 1M aqueous MgCl2 (5 mL) are added. The pH is adjusted to 7.6 with NaOH and the solution made to a final volume of 1 L using distilled water. 5 g bovine serum albumin and 0.1 g sodium azide are then dissolved in the solution and the resulting buffer stored at 4° C. A Complete™ protease inhibitor cocktail tablet (available from Boehringer) is added per 50 mL of the buffer on the day of use.
Preparation of Homogenisation Buffer: Tris-base (2.42 g) is dissolved in distilled water, the pH of the solution is adjusted to 7.6 with hydrochloric acid and the solution is diluted with distilled water to a final volume of 1 L. The resulting buffer is stored at 4° C. A Complete™ protease inhibitor cocktail tablet is added per 50 mL of the buffer on the day of use.
Preparation of membranes: Confluent rat basophil leukemia (RBL-2H3) cells stably expressing CCR3 are removed from tissue culture flasks using enzyme-free cell dissociation buffer and resuspended in phosphate-buffered saline. […]
The assay is performed in a final volume of 250 μL per well of an Optiplate (ex Canberra Packard). […] The resulting scintillations are counted using a Canberra Packard TopCount, each well being counted for 1 minute. […]
In turn, `COc1ccc(C#N)cc1/C=C/C(=O)N[C@H](CO)CN1CCC(Cc2ccc(Cl)cc2)CC1` [Example 2, (E)-3-(5-Cyano-2-methoxy-phenyl)-N-{(S)-2-[4-(4-chloro-benzyl)-piperidin-1-yl]-1-hydroxymethyl-ethyl}-acrylamide] came in with an IC50 of 6 nM.

For `COc1ccc(Br)cc1/C=C/C(=O)NCCN1CCC(Cc2ccc(F)cc2)CC1` [Example 3, (E)-3-(5-Bromo-2-methoxy-phenyl)-N-{2-[4-(4-fluoro-benzyl)-piperidin-1-yl]-ethyl}-acrylamide], the IC50 amounted to 34.7 nM. This IC50 is about 5.8-fold higher than that of the compound before.

In turn, `COc1ccc(C#N)cc1/C=C/C(=O)N[C@H](CO)CN1CCC(Cc2ccc(F)cc2)CC1` [Example 4, (E)-3-(5-Cyano-2-methoxy-phenyl)-N-{(S)-2-[4-(4-fluoro-benzyl)-piperidin-1-yl]-1-hydroxymethyl-ethyl}-acrylaniide] displayed an IC50 of 6 nM.
